Experimental data reported in patent publication US11566007B2, “Ras inhibitors” (Revolution Medicines, Inc., priority 2019, dated 2023).
“And” between values parts separate entries of the source, which are not always exact repeats. Identical values can stand only once.

Legend:
K-Ras G12C = K-Ras G12C (Homo sapiens (Human), UniProt P01116+P62937, G12C); assay: Ras-Raf (BRAF RBD) disruption / FRET / MOA assay, KRAS G12C; assay type: biochemical; details: KRAS G12C; Ras-Raf disruption/FRET/MOA assay; read-out: IC50* KRAS G12C FRET data
How it was run: (§1)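 Compound-driven ternary complex of nucleotide-loaded Ras with cyclophilin A, disrupting BRAF RBD binding. 10-point 3-fold dilution from 30 μM final, 3 h at 25° C, then anti-His Eu-W1024 (10 nM) and anti-GST allophycocyanin (50 nM) for 1.5 h. IC50 from TR-FRET ratio decrease versus DMSO.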

NCI-H358 (K-Ras G12C) = assay: CellTiter-Glo cell viability assay, NCI-H358; assay type: cell-based, human; details: Homo sapiens, NCI-H358, 120 h, NCI-H358, 5-day treatment; class symbols; read-out: Additional H358 Cell Viability assay data (K-Ras G12C, IC50)
How it was run: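 Viability measured by CellTiter-Glo luminescence on day 5 following direct addition of compound to plated cells. Values expressed as percent of mean DMSO signal; curves fitted with a four-parameter logistic model.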

KRAS WT = KRAS WT (Homo sapiens (Human), UniProt P01116+P62937); assay: Ras-Raf (BRAF RBD) disruption / FRET / MOA assay, KRAS WT; assay type: biochemical; details: read-out: IC50* KRAS WT FRET data
How it was run: as §1

K-Ras G13C = K-Ras G13C (Homo sapiens (Human), UniProt P01116+P62937, G13C); assay: Ras-Raf (BRAF RBD) disruption / FRET / MOA assay, KRAS G13C; assay type: biochemical; details: KRAS G13C; Ras-Raf disruption/FRET/MOA assay; read-out: IC50* KRAS G13C FRET data
How it was run: as §1

NRAS WT = NRAS WT (Homo sapiens (Human), UniProt P01111+P62937); assay: Ras-Raf (BRAF RBD) disruption / FRET / MOA assay, NRAS WT; assay type: biochemical; details: read-out: IC50* NRAS WT FRET data
How it was run: (§2)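 Compounds (30 μM top final, 10-point 3-fold dilutions) incubated 3 h at 25° C with nucleotide-loaded Ras, cyclophilin A and BRAF RBD. Detection with 10 nM anti-His Eu-W1024 and 50 nM anti-GST allophycocyanin over another 1.5 h. Lowered TR-FRET ratio relative to DMSO wells gives IC50.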

KRAS G12D = KRAS G12D (Homo sapiens (Human), UniProt P01116+P62937, G12D); assay: Ras-Raf (BRAF RBD) disruption / FRET / MOA assay, KRAS G12D; assay type: biochemical; details: Ras-Raf disruption/FRET/MOA assay; class symbols; read-out: KRAS G12D FRET data IC50
How it was run: as §1

NRAS Q61R = NRAS Q61R (Homo sapiens (Human), UniProt P01111+P62937, Q61R); assay: Ras-Raf (BRAF RBD) disruption / FRET / MOA assay, NRAS Q61R; assay type: biochemical; details: NRAS Q61R; Ras-Raf disruption/FRET/MOA assay; read-out: IC50* NRAS Q61R FRET data
How it was run: as §2

KRAS G12V = KRAS G12V (Homo sapiens (Human), UniProt P01116+P62937, G12V); assay: Ras-Raf (BRAF RBD) disruption / FRET / MOA assay, KRAS G12V; assay type: biochemical; details: read-out: IC50* KRAS G12V FRET data
How it was run: as §1

KRAS G13D = KRAS G13D (Homo sapiens (Human), UniProt P01116+P62937, G13D); assay: Ras-Raf (BRAF RBD) disruption / FRET / MOA assay, KRAS G13D; assay type: biochemical; details: read-out: IC50* KRAS G13D FRET data
How it was run: as §1

KRAS Q61H = KRAS Q61H (Homo sapiens (Human), UniProt P01116+P62937, Q61H); assay: Ras-Raf (BRAF RBD) disruption / FRET / MOA assay, KRAS Q61H; assay type: biochemical; details: Ras-Raf disruption/FRET/MOA assay; class symbols; read-out: KRAS Q61H FRET data IC50
How it was run: as §2

Chain of K-Ras G13C (P01116-2 other isoform, or with tags, fused parts or gaps G13C): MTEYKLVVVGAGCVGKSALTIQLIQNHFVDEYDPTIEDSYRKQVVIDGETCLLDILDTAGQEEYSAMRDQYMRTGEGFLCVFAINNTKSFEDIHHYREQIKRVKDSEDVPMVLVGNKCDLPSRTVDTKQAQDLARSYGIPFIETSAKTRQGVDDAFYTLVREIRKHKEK
Chain of K-Ras G13C (P62937 whole entry): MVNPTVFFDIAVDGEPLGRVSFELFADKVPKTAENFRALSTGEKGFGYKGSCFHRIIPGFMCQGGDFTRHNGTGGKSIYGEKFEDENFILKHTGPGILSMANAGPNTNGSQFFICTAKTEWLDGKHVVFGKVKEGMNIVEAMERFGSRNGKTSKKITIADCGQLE
Chain of KRAS G12D (P01116-2 other isoform, or with tags, fused parts or gaps G12D): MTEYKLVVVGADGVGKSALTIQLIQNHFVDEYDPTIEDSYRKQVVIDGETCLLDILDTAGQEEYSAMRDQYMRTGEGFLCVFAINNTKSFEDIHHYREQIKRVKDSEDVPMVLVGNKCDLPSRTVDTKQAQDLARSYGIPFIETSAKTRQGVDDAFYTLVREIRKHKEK
Chain of KRAS G12D (P62937 whole entry): as the sequence (P62937 whole entry) above
Chain of NRAS Q61R (P01111 whole entry Q61R): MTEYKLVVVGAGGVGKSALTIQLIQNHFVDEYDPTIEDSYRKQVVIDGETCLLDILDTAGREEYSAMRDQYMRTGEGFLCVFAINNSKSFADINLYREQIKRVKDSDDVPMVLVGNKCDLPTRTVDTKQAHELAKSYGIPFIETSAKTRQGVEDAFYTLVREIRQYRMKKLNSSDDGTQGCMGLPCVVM
Chain of NRAS Q61R (P62937 whole entry): as the sequence (P62937 whole entry) above
Chain of KRAS Q61H (P01116-2 other isoform, or with tags, fused parts or gaps Q61H): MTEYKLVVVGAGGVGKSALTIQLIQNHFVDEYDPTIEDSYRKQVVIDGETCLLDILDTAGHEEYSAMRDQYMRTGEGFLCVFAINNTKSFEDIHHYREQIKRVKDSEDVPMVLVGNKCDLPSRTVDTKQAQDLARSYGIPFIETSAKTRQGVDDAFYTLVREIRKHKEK
Chain of KRAS Q61H (P62937 whole entry): as the sequence (P62937 whole entry) above
Chain of K-Ras G12C (P01116-2 other isoform, or with tags, fused parts or gaps G12C): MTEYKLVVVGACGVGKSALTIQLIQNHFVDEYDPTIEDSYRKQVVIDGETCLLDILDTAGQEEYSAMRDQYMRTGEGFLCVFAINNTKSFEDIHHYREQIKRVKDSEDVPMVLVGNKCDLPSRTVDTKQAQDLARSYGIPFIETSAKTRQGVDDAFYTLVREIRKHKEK
Chain of K-Ras G12C (P62937 whole entry): as the sequence (P62937 whole entry) above
Chain of NRAS WT (P01111 whole entry): as the sequence (P01111 whole entry Q61R) above, with R61Q counted along it
Chain of NRAS WT (P62937 whole entry): as the sequence (P62937 whole entry) above
Chain of KRAS G12V (P01116-2 other isoform, or with tags, fused parts or gaps G12V): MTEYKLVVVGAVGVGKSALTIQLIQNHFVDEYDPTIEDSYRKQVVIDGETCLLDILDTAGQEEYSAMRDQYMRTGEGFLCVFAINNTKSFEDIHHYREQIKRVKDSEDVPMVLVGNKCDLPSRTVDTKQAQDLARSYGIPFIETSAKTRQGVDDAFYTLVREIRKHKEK
Chain of KRAS G12V (P62937 whole entry): as the sequence (P62937 whole entry) above
Chain of KRAS WT (P01116-2 other isoform, or with tags, fused parts or gaps): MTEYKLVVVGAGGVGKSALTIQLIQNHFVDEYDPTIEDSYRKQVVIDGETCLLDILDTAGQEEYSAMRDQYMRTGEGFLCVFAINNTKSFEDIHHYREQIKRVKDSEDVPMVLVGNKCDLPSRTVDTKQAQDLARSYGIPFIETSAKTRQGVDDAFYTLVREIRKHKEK
Chain of KRAS WT (P62937 whole entry): as the sequence (P62937 whole entry) above
Chain of KRAS G13D (P01116-2 other isoform, or with tags, fused parts or gaps G13D): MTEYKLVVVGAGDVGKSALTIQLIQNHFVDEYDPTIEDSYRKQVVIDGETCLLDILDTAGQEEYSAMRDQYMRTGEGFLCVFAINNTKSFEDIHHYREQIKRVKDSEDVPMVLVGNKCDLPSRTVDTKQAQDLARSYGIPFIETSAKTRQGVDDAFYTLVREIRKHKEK
Chain of KRAS G13D (P62937 whole entry): as the sequence (P62937 whole entry) above

| Compound | IC50 (K-Ras G12C) | IC50 (NCI-H358 (K-Ras G12C)) [µM] | IC50 (KRAS WT) [µM] | IC50 (K-Ras G13C) [µM] | IC50 (NRAS WT) [µM] | IC50 (KRAS G12D) [µM] | IC50 (NRAS Q61R) [µM] | IC50 (KRAS G12V) [µM] | IC50 (KRAS G13D) [µM] | IC50 (KRAS Q61H) [µM] |
| --- | --- | --- | --- | --- | --- | --- | --- | --- | --- | --- |
| C=CC(=O)N1CC[C@]2(CCN(C(=O)N(C)[C@H](C(=O)N[C@H]3Cc4nc(cs4)-c4ccc5c(c4)c(c(-c4cccnc4[C@H](C)OC)n5CC)CC(C)(C)COC(=O)[C@@H]4CCCN(N4)C3=O)C(C)C)C2)C1 (atropisomer, axis not shown) [Example A719] | 0.01 to 0.1 µM | 0.01 to 0.1 | 0.1 to 1 | 0.01 to 0.1 | 0.01 to 0.1 | 0.1 to 1 | 0.01 to 0.1 | 0.1 to 1 | 0.1 to 1 | 0.01 to 0.1 |
| C=CC(=O)N1CC(OC[C@H](C(=O)N[C@H]2Cc3cc(F)cc(c3)-c3ccc4c(c3)c(c(-c3cccnc3[C@H](C)OC)n4CC(F)(F)F)CC(C)(C)COC(=O)[C@@H]3CCCN(N3)C2=O)C(C)C)C1 (atropisomer, axis not shown) [Example A725] | 0.1 to 1 µM | 0.01 to 0.1 | 1 to 10 | 0.1 to 1 | 1 to 10 | > 10 | 1 to 10 | 1 to 10 | 1 to 10 | 0.1 to 1 |
| C=CC(=O)N1CC[C@H](N(C)C(=O)N(C)[C@H](C(=O)N[C@H]2Cc3nc(cs3)-c3ccc4c(c3)c(c(-c3cccnc3[C@H](C)OC)n4CC)CC(C)(C)COC(=O)[C@@H]3CCCN(N3)C2=O)C(C)C)C1 (atropisomer, axis not shown) [Example A728] | 0.1 to 1 µM | 0.01 to 0.1 | 0.1 to 1 | 0.1 to 1 | 0.1 to 1 | 1 to 10 | 0.1 to 1 | 0.1 to 1 | 1 to 10 | 0.1 to 1 |
| C=CC(=O)N1CCN(C(=O)N(C)[C@H](C(=O)N[C@H]2Cc3nc(cs3)-c3ccc4c(c3)c(c(-c3cccnc3[C@H](C)OC)n4CC)CC(C)(C)COC(=O)[C@@H]3CCCN(N3)C2=O)C(C)C)[C@H]2CC[C@H]21 (atropisomer, axis not shown) [Example A734] | 0.01 to 0.1 µM | 0.01 to 0.1 | 0.01 to 0.1 | 0.01 to 0.1 | 0.01 to 0.1 | 0.1 to 1 | 0.01 to 0.1 | 0.01 to 0.1 | 0.1 to 1 | 0.01 to 0.1 |
| C=CC(=O)N1CC2(C1)OCCCN2C(=O)N(C)[C@H](C(=O)N[C@H]1Cc2nc(cs2)-c2ccc3c(c2)c(c(-c2cccnc2[C@H](C)OC)n3CC)CC(C)(C)COC(=O)[C@@H]2CCCN(N2)C1=O)C(C)C (atropisomer, axis not shown) [Example A735, 2-acryloyl-N-((2S)-1-(((6^3S,4S,Z)-1^1-ethyl-1^2-(2-((S)-1-methoxyethyl)pyridin-3-yl)-10,10-dimethyl-5,7-dioxo-6^1,6^2,6^3,6^4,6^5,6^6-hexahydro-1^1H-8-oxa-2(4,2)-thiazola-1(5,3)-indola-6(1,3)-pyridazinacycloundecaphane-4-yl)amino)-3-methyl-1-oxobutan-2-yl)-N-methyl-5-oxa-2,9-diazaspiro[3.5]nonane-9-carboxamide] | < 0.01 µM | < 0.01 | 1 to 10 | 1 to 10 | 1 to 10 | > 10 | > 10 | > 10 | > 10 | 1 to 10 |
| C=CC(=O)N(C)[C@@H]1C[C@H]1N(C)C(=O)N(C)[C@H](C(=O)N[C@H]1Cc2nc(cs2)-c2ccc3c(c2)c(c(-c2cccnc2[C@H](C)OC)n3CC)CC(C)(C)COC(=O)[C@@H]2CCCN(N2)C1=O)C(C)C (atropisomer, axis not shown) [Example A739] | 0.1 to 1 µM | 0.01 to 0.1 | 0.1 to 1 | 0.1 to 1 | 0.1 to 1 | 1 to 10 | 1 to 10 | 1 to 10 | 1 to 10 | 0.01 to 0.1 |
| C=CC(=O)N1CC[C@H](C(=O)N(C)[C@H](C(=O)N[C@H]2Cc3cccc(c3)-c3ccc4c(c3)c(c(-c3cnccc3[C@H](C)OC)n4CC)CC(C)(C)COC(=O)[C@@H]3CCCN(N3)C2=O)C(C)C)C1 (single isomer, unassigned) [Example A115] | 0.01 to 0.1 µM and 0.1 to 1 µM | 0.01 to 0.1 | 1 to 10 | 1 to 10 | 1 to 10 | > 10 | 1 to 10 | 1 to 10 | > 10 | 0.1 to 1 |
| C=CC(=O)N1CC[C@H](C(=O)N(C)[C@H](C(=O)N[C@H]2Cc3cc(O)cc(c3)-c3ccc4c(c3)c(c(-c3cc(N5CC(OC)C5)ccn3)n4CC)CC(C)(C)COC(=O)[C@@H]3CCCN(N3)C2=O)C(C)C)C1 [Example A104] | 0.01 to 0.1 µM | < 0.01 | 1 to 10 | 1 to 10 | 1 to 10 | > 10 | 1 to 10 | 1 to 10 | 1 to 10 | 0.1 to 1 |
| C=CC(=O)N1CC[C@H](C(=O)N(C)[C@H](C(=O)N[C@H]2Cc3cc(O)cc(c3)-c3ccc4c(c3)c(c(-c3cc(C#N)cnc3COC)n4CC)CC(C)(C)COC(=O)[C@@H]3CCCN(N3)C2=O)C(C)C)C1 [Example A105] | 0.01 to 0.1 µM | 0.01 to 0.1 | 0.1 to 1 | 0.1 to 1 | 0.1 to 1 | 1 to 10 | 0.1 to 1 | 0.1 to 1 | 0.1 to 1 | 0.01 to 0.1 |
| C=CC(=O)N1CC[C@H](C(=O)N(C)[C@H](C(=O)N[C@H]2Cc3cc(O)cc(c3)-c3ccc4c(c3)c(c(-c3cn(C)cn3)n4CC)CC(C)(C)COC(=O)[C@@H]3CCCN(N3)C2=O)C(C)C)C1 [Example A113] | 0.1 to 1 µM | 0.1 to 1 | > 10 | > 10 | > 10 | > 10 | > 10 | 1 to 10 | > 10 | 1 to 10 |
